Results published in ChEMBL document CHEMBL1126814, “Oxindole N-Methyl-D-Aspartate (NMDA) antagonists” (Bioorg Med Chem Lett, 1993).

Columns and labels:
[1] = molecular target: T1, Adrenergic receptor alpha-1 (Rattus norvegicus, UniProt P15823+P23944+P43140); assay: Tested for the Alpha-1 adrenergic receptor affinity in a standard radioligand binding assay with [3H]- prazosin; format: protein assay
T1 sequence (P15823 whole entry): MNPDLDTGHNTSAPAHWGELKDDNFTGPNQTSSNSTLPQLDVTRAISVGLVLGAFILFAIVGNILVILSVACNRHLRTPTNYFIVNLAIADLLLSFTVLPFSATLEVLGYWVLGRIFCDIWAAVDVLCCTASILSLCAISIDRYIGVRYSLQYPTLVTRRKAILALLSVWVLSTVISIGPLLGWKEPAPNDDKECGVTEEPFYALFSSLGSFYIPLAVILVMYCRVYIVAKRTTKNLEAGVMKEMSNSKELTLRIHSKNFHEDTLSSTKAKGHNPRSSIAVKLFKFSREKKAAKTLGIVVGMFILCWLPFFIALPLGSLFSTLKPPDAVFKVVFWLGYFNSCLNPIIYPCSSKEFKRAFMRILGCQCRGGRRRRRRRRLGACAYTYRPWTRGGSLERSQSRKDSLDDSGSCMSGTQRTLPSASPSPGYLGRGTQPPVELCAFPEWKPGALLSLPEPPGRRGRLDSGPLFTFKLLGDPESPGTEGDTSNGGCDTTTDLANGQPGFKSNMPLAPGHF
T1 sequence (P23944 whole entry): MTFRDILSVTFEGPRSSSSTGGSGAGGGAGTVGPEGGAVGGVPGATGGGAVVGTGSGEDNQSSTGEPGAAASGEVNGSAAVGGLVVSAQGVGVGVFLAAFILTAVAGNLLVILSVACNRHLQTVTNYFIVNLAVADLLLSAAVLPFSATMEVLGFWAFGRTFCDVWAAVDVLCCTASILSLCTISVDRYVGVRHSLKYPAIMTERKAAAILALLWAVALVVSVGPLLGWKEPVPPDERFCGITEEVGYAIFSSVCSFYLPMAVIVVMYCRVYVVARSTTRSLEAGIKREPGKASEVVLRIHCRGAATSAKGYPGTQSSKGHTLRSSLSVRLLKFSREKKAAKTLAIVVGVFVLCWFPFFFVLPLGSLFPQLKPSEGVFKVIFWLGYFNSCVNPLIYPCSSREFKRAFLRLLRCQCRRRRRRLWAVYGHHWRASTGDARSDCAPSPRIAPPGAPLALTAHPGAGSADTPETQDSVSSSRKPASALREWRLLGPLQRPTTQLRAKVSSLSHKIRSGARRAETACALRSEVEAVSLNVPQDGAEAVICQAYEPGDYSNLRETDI
T1 sequence (P43140 whole entry): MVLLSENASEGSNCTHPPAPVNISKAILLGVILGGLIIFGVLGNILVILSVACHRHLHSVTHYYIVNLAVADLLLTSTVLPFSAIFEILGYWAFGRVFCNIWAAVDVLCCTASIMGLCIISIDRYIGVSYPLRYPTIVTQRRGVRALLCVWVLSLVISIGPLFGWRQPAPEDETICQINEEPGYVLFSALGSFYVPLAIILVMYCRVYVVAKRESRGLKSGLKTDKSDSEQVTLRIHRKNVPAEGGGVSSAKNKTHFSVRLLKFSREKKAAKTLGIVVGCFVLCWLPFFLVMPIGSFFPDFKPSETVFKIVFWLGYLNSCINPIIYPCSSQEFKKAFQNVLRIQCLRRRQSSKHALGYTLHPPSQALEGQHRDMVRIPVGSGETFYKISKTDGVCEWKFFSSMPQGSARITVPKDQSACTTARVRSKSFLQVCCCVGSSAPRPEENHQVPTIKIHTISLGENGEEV

[2] = Ratio of the IC50s of the two assays (alpha1 adrenoceptor binding assay/GT functional assay) used as an estimate of Therapeutic Index

Compound	IC50 [1]	TI [2]
C[C@@H]([C@H](O)c1ccc2c(c1)CC(=O)N2)N1CCC(Cc2ccccc2)CC1	100 nM	0.4
C[C@@H]([C@@H](O)c1ccc2c(c1)CC(=O)N2)N1CCC(Cc2ccccc2)CC1	710 nM	6.4
C[C@@H]([C@H](O)c1ccc(O)cc1)N1CCC(Cc2ccccc2)CC1 [(R,S)-IFENPRODIL]	100 nM	0.38
C[C@@H]([C@@H](O)c1ccc(O)cc1)N1CCC(Cc2ccccc2)CC1		15.3
OC(CN1CCC(Cc2ccc(F)cc2)CC1)c1ccc(Cl)cc1 (stereo not drawn) [ELIPRODIL]	800 nM	0.8
C[C@@H]([C@@H](O)c1ccc2c(c1)CC(=O)N2)N1CCC(c2ccccc2)CC1	349 nM	8.7
O=C1Cc2cc(C(O)CN3CCC(Cc4ccc(F)cc4)CC3)ccc2N1 (stereo not drawn)	183 nM	0.3
